Target: T1, CdCodY GAF domain (Clostridioides difficile, UniProt Q18BE1)
T1 construct: gene codY; N-terminal GAF domain, CdCodY(1-156); six molecules in the asymmetric unit
Test: X-ray crystal structure, […] A
Format: binding
Details: GAF-domain effector pocket; contacts N40, Y42, D60, S62, F74, F101, E104, K110, S130

T1 sequence (Q18BE1 entry or part of it): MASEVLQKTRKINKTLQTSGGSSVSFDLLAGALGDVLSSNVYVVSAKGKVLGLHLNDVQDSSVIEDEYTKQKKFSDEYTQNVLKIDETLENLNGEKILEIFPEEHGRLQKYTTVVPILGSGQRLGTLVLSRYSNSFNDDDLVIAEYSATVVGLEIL

**Q.** How did the “X-ray crystal structure, 1.7 A” value turn out when `CC[C@H](C)[C@H](N)C(=O)O` [isoleucine] was run?
**A.** The value was “The crystal structure of the GAF domain of CdCodY bound to isoleucine was solved”.
